Source: patent US4282248A, “Pinene derivatives and pharmaceutical compositions containing the same” (priority 1978, dated 1981)

Columns and labels:
Assay type in all cases: in vivo
[1] = foot pressure test (rat foot pressure); conditions: for ED50: Rattus norvegicus
Protocol: (§1) The analgetic activity was tested by the acetic acid induced writhing test (Sofia et al., J. Pharmacol.Expt.Therap. 18, 646, 1973), by the tail flick test (Grotto et al., Arch Intern.Pharmacodyn. 170, 257, 1967) and by the foot pressure test (Randall and Selito, Arch, Int. Pharmacodyn. 409, 1957). The central nervous system action was tested by the mouse ring test (Pertwee, Brit. J. Pharmacol. 46, 753, 1972).

[2] = acetic acid induced writhing test (mouse writhing); conditions: for ED50: Mus musculus
Protocol: as §1

[3] = tail flick test (mouse tail flick); conditions: for ED50: Mus musculus
Protocol: as §1

SMILES | Rat foot pressure ED50 [1] | Mouse writhing ED50 [2] [mg/kg] | Mouse tail flick ED50 [3] | ED50 [1] [mg/kg] | ED50 [2] [mg/kg] | ED50 [3] [mg/kg]
CCCCCCC(C)(C)c1cc(O)c(C2C=C(COC(=O)C(C)(C)C)C3CC2C3(C)C)c(O)c1 (single isomer, unassigned) [VIc(-)] | 30 mg/kg | < 10 | 10 mg/kg |  |  | 
CCCCCCC(C)(C)c1cc(O)c(C2CC(C)C3CC2C3(C)C)c(O)c1 (stereo not drawn) [Xa(+), 4-Trans-[2-(5-(1,1-dimethylheptyl)-resorcyl)]-pinane] | ~ 50 mg/kg | 15 | ~ 50 mg/kg |  |  | 
CCCCCC(C)C(C)c1cc(OC(C)=O)c(C2C=C(COC(C)=O)C3CC2C3(C)C)c(OC(C)=O)c1 (single isomer, unassigned) [VIIIb(+), 4-Trans-[2-(5-(1,2-dimethylheptyl-resorcyl)]-10-hydroxy-pin-2-ene, triacetate] |  |  |  | 50 | 10 | 50
CCCCCCC(C)(C)c1cc(O)c(C2C=C(COC(C)=O)C3CC2C3(C)C)c(O)c1 (single isomer, unassigned) [VIa(-)] | 25 mg/kg | 10 | 10 mg/kg |  |  | 
CCCCCCC(C)(C)c1cc(OC(C)=O)c(C2C=C(COC(=O)C(C)(C)C)C3CC2C3(C)C)c(OC(C)=O)c1 (single isomer, unassigned) [VIIIc(+)] |  |  |  | > 50 | 25 | > 50
CCCCCCC(C)(C)c1cc(O)c(C2CC(C)C3CC2C3(C)C)c(O)c1 (stereo not drawn) [Xa(-), 4-trans-[2-(5-(1,1-dimethylheptyl)-resorcyl)]-pinane] | ~ 50 mg/kg | 9 | ~ 50 mg/kg |  |  | 
CCCCCCC(C)(C)c1cc(OC(C)=O)c(C2C=C(COC(C)=O)C3CC2C3(C)C)c(OC(C)=O)c1 (single isomer, unassigned) [VIIIa(+), 4-Trans-[2-(5-(1,1-dimethylheptyl)-resorcyl)]-10-hydroxy-pin-2-ene triacetate] |  |  |  | 50 | 18 | 50
CCCCCCC(C)(C)c1cc(O)c(C2C=C(CO)C3CC2C3(C)C)c(O)c1 (single isomer, unassigned) [VIIa(-), 4-trans-[2-(5-(1,1-dimethylheptyl)-resorcyl)]-10-hydroxy-pin-2-ene] | 25 mg/kg | 7 | 6 mg/kg |  |  | 
CCCCCC(C)C(C)c1cc(O)c(C2C=C(COC(=O)C(C)(C)C)C3CC2C3(C)C)c(O)c1 (single isomer, unassigned) [VId(+), 4-trans-[2-(5-(1,2-dimethylheptyl)-resorcyl)]-10-hydroxy-pin-2-ene, 10 pivalate] |  |  |  | 30 | 10 | 
CCCCCC(C)C(C)c1cc(O)c(C2C=C(CO)C3CC2C3(C)C)c(O)c1 (single isomer, unassigned) [VIIb(-), 4-Trans-[2-(5-(1,2-dimethyheptyl)-resorcyl)]-10-hydroxy-pin-2-ene] | 25 mg/kg | 7 | 6 mg/kg |  |  | 
CCCCCC(C)C(C)c1cc(OC(C)=O)c(C2C=C(COC(C)=O)C3CC2C3(C)C)c(OC(C)=O)c1 (single isomer, unassigned) [VIIIb(-), 4-trans-[2-(5-(1,2-dimethylpheptyl)]-resorcyl)-10-hydroxy-pin-2-ene, triacetate] | 50 mg/kg | 10 | 30 mg/kg |  |  | 
CCCCCC(C)C(C)c1cc(O)c(C2C=C(CO)C3CC2C3(C)C)c(O)c1 (single isomer, unassigned) [VIIb(+), 4-Trans[2-(5-(1,2-dimethylheptyl)-resorcyl)]-10-hydroxy-pin-2-ene] |  |  | 30 mg/kg | 15 | 5 | 
CCCCCC(C)C(C)c1cc(O)c(C2C=C(COC(=O)C(C)(C)C)C3CC2C3(C)C)c(O)c1 (single isomer, unassigned) [VId(-), 4-trans-[2-(5-(1,2-dimethylheptyl)-resorcyl)]-10-hydroxy-pin-2-ene, 10 pivalate] | 30 mg/kg | < 10 | 10 mg/kg |  |  | 
CCCCCCC(C)(C)c1cc(O)c(C2C=C(COC(C)=O)C3CC2C3(C)C)c(O)c1 (single isomer, unassigned) [VIa(+)] |  |  | 30 mg/kg | 35 | 10 | 
CCCCCC(C)C(C)c1cc(O)c(C2CC(C)C3CC2C3(C)C)c(O)c1 (single isomer, unassigned) [Xb(-), 4-Trans-[-(5-(1,2-dimethylheptyl)-resorcyl)]-pinane] |  |  |  | ~50 | 6 | ~50
CCCCCCC(C)(C)c1cc(OC(C)=O)c(C2C=C(COC(C)=O)C3CC2C3(C)C)c(OC(C)=O)c1 (single isomer, unassigned) [VIIIa(-), 4-trans-[2-(5-(1,1-dimethylheptyl)-resorcyl)]-10-hydroxy-pin-2-ene, triacetate] | 50 mg/kg | 18 | 30 mg/kg |  |  | 
CCCCCCC(C)(C)c1cc(OC(C)=O)c(C2C=C(COC(=O)C(C)(C)C)C3CC2C3(C)C)c(OC(C)=O)c1 (single isomer, unassigned) [VIIIc(-)] | > 50 mg/kg | 25 | > 50 mg/kg |  |  | 
CCCCCC(C)C(C)c1cc(O)c(C2CC(C)C3CC2C3(C)C)c(O)c1 (stereo not drawn) [Xb(+), 4-Trans-[-(5-(1,2-dimethylheptyl)-resorcyl)]-pinane] | ~ 50 mg/kg | 6 | ~ 50 mg/kg |  |  | 
CCCCCC(C)C(C)c1cc(OC(C)=O)c(C2C=C(COC(=O)C(C)(C)C)C3CC2C3(C)C)c(OC(C)=O)c1 (single isomer, unassigned) [VIIId(-), 4-trans-[2-(5-(1,2-dimethylheptyl)-resorcyl diacetate)]-10-hydroxy-pin-2-ene-10-pivalate] | > 50 mg/kg | 25 | > 50 mg/kg |  |  | 
CCCCCC(C)C(C)c1cc(O)c(C2C=C(COC(C)=O)C3CC2C3(C)C)c(O)c1 (single isomer, unassigned) [VIb(+)] |  |  | 30 mg/kg | 35 | 10 | 
CCCCCC(C)C(C)c1cc(O)c(C2C=C(COC(C)=O)C3CC2C3(C)C)c(O)c1 (single isomer, unassigned) [VIb(-)] | 25 mg/kg | 10 | 10 mg/kg |  |  | 
CCCCCC(C)C(C)c1cc(OC(C)=O)c(C2C=C(COC(=O)C(C)(C)C)C3CC2C3(C)C)c(OC(C)=O)c1 (single isomer, unassigned) [VIIId(+), 4-trans-[2-(5-(1,2-dimethylheptyl)-resorcyl diacetate)]-10-hydroxy-pin-2-ene-10-pivalate] |  |  |  | > 50 | 25 | > 50
CCCCCCC(C)(C)c1cc(O)c(C2C=C(COC(=O)C(C)(C)C)C3CC2C3(C)C)c(O)c1 (single isomer, unassigned) [VIc(+)] |  |  |  | 30 | 10 | 
CCCCCCC(C)(C)c1cc(O)c(C2C=C(CO)C3CC2C3(C)C)c(O)c1 (single isomer, unassigned) [VIIa(+), 4-Trans-[2-(5-(1,1-dimethylheptyl)-resorcyl)]-10-hydroxy-pin-2-ene] |  |  | 30 mg/kg | 15 | 5 | 
